Read-outs that look alike come from different tables or passages of the source.
Experiments:
orthopoxvirus = test system: orthopoxvirus; design: species or system A/NCr mice; conditions: mouse, in vivo
[1] = in vivo; cited from earlier work
[2] = test system: live vaccinia virus (Dryvax); design: species or system A/NCr mice; conditions: mouse, in vivo

Molecule: Nc1ccn(C[C@@H](CO)OCP(=O)(O)O)c(=O)n1 [Cidofovir]
- post challenge anti-orthopoxvirus antibody titers, presence vs absence of CDV (orthopoxvirus): similar
- pre-challenge anti-orthopoxvirus antibody titers, presence vs absence of CDV (orthopoxvirus): lower
- oral bioavailability [1]: low
- Lesion score [2]: 0
- severity of vaccine lesions and healing [2]: decreased the severity of vaccine lesions and facilitated healing
- Lesion score ([2]; 12.5 mg/kg): 0

Molecule: hexadecyloxypropyl-CDV [HDP-CDV]
- attenuation of lesion development and acceleration of lesion resolution, compared with CDV [2]: more efficacious than CDV
- severity of vaccine lesions and healing [2]: decreased the severity of vaccine lesions and facilitated healing
